Numbered stars: 1 amine (or outer) side, 2 acyl side, 3 side chain; on linkers, the order of the positions; unused ones are H or OH. Square brackets hold non-standard residues; d marks the D form. Side chains are listed from the residue outwards. Peptide text beside a SMILES is read from it. * marks the point of attachment. C18 diacid = O=C(O)CCCCCCCCCCCCCCCCC(=O)*; γGlu = O=C(O)[C@H](CCC(=O)[*:2])N[*:1]; AEEA = NCCOCCOCC(=O)O; Aib = CC(C)(N)C(=O)O
Key:
human GLP-1R = human GLP-1R (Homo sapiens, UniProt P43220); assay: [125I]-GLP-1 binding (SPA), human GLP-1 receptor; parameters: expressed in transfected cells; crude membranes; conditions: read-out: hGLP1R Ki, (nM) (SEM, n)
Chain of human GLP-1R (P43220 24-463): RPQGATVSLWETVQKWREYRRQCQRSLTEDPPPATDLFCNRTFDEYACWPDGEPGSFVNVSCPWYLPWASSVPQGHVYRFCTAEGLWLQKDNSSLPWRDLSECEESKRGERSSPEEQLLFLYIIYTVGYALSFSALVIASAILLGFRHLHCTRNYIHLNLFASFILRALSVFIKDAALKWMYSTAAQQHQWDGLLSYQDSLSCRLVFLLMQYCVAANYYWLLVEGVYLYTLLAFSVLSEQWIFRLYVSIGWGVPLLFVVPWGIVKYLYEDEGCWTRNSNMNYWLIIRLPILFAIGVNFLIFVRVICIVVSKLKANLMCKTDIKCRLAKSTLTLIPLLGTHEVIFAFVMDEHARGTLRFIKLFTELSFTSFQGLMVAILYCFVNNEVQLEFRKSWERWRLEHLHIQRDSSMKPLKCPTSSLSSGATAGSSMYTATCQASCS
How it was run: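 Crude-membrane binding assay; one membrane prep included 1 mM MgCl2 and 25 units/ml DNAse I during lysis. Assay buffer at pH 7.4 contains 0.1% (w/v) bacitracin and 0.003% (w/v) TWEEN-20. Ki is reported as geometric mean.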

[1] = molecular target: T1, gastric inhibitory peptide receptor (GIPR) (Homo sapiens, UniProt P48546); assay: cAMP pharmacological functional assay in presence of casein, hGIPR; type: cell-based; conditions: HEK293 cells expressing hGIPR, 0.1% Casein, geometric mean; read-out: hGIPR cAMP Rel EC50 nM (SEM, n)
T1 sequence (P48546 22-466): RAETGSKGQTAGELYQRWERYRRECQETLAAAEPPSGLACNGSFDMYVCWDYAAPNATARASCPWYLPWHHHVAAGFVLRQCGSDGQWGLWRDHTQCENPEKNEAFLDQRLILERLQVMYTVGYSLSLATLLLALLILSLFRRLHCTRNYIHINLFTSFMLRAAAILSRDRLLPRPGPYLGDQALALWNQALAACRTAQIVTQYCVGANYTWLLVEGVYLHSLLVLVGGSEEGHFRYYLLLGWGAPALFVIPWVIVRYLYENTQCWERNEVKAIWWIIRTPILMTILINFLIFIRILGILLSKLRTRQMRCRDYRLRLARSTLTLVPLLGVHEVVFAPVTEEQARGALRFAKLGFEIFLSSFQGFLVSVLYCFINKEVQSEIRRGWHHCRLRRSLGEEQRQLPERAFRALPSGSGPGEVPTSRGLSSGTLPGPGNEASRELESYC

human Gcg receptor = molecular target: T2, human Gcg receptor (Homo sapiens, UniProt P47871); assay: [125I]-Glucagon binding (SPA), human Gcg receptor; conditions: read-out: hGLcgR Ki, nM (SEM, n)
T2 construct: expressed in transfected cells; crude membranes
T2 sequence (P47871 26-477): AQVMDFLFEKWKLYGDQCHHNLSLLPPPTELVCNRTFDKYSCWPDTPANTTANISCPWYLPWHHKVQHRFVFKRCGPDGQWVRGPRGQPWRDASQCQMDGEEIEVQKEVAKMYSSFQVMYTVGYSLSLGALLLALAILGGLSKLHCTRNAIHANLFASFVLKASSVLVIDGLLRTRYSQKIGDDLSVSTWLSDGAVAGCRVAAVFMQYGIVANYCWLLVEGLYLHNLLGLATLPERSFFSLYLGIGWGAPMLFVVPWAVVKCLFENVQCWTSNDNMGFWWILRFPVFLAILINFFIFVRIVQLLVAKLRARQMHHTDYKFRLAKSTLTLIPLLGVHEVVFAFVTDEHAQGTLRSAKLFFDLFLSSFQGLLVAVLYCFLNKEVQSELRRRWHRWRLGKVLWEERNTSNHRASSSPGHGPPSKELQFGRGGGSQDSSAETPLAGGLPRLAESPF
How it was run: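 Scintillation counts are taken after membranes and WGA beads incubate and settle for 12 hours at room temperature. Buffer is 25 mM HEPES, pH 7.4, with CaCl2, MgCl2, bacitracin and Tween-20. Ki values, from four-parameter IC50 fits, are geometric means over independent days.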

[2] = molecular target: human GLP-1 receptor (GLP-1R) (Homo sapiens, UniProt P43220); assay: cAMP pharmacological functional assay in presence of casein, hGLP-1R; type: cell-based; conditions: HEK293 cells expressing hGLP-1R, 0.1% Casein, geometric mean; read-out: hGLP1R cAMP Rel EC50 nM (SEM, n)
Chain of human GLP-1 receptor (GLP-1R) (P43220 24-463): as the sequence (P43220 24-463) above

human GIP receptor = molecular target: T3, human GIP receptor (Homo sapiens, UniProt P48546); assay: [125I]-GIP binding (SPA), human GIP receptor; conditions: read-out: hGIPR Ki, nM (SEM, n)
T3 construct: expressed in transfected cells; crude membranes
T3 sequence (P48546 22-466): T1 sequence (P48546 22-466)

Ki (human GLP-1R) [nM]	EC50 [1] [nM]	Ki (human Gcg receptor) [nM]	EC50 [2] [nM]	Ki (human GIP receptor) [nM]	Compound
1.13	0.079	724	0.0352	0.0698	CC[C@H](C)[C@H](NC(=O)[C@H](CC(C)C)NC(=O)[C@H](Cc1ccc(O)cc1)NC(=O)[C@H](CCC(=O)O)NC(=O)[C@@H](NC(=O)[C@H](Cc1ccccc1)NC(=O)[C@H](C)NC(=O)C(C)(C)NC(=O)[C@H](CCC(N)=O)NC(=O)[C@H](C)NC(=O)[C@H](CCCCNC(=O)COCCOCCNC(=O)COCCOCCNC(=O)CC[C@H](NC(=O)CCCCCCCCCCCCCCCCC(=O)O)C(=O)O)NC(=O)[C@H](CCCCN)NC(=O)[C@H](CC(=O)O)NC(=O)[C@H](CC(C)C)NC(=O)[C@H](CC(C)C)NC(=O)[C@@H](NC(=O)[C@H](CO)NC(=O)[C@H](Cc1ccc(O)cc1)NC(=O)[C@H](CC(=O)O)NC(=O)[C@H](CO)NC(=O)[C@@H](NC(=O)[C@H](Cc1ccccc1)NC(=O)[C@@H](NC(=O)CNC(=O)[C@H](CCC(=O)O)NC(=O)C(C)(C)NC(=O)[C@@H](N)Cc1ccc(O)cc1)[C@@H](C)O)[C@@H](C)O)[C@@H](C)CC)[C@@H](C)CC)C(=O)N[C@@H](C)C(=O)NCC(=O)NCC(N)=O [Example 273] (H-Y[Aib]EGTFTSDYSILLDKK([AEEA-AEEA-γGlu-C18 diacid])AQ[Aib]AFIEYLIAGG-NH2)
2.92	0.183	629	0.185	0.205	CC[C@H](C)[C@H](NC(=O)[C@H](CC(C)C)NC(=O)[C@H](Cc1ccc(O)cc1)NC(=O)[C@H](CCC(=O)O)NC(=O)[C@@H](NC(=O)[C@H](Cc1ccccc1)NC(=O)[C@H](C)NC(=O)[C@H](CCC(N)=O)NC(=O)[C@H](CCC(N)=O)NC(=O)[C@H](C)NC(=O)[C@H](CCCCNC(=O)COCCOCCNC(=O)COCCOCCNC(=O)CC[C@H](NC(=O)CCCCCCCCCCCCCCCCC(=O)O)C(=O)O)NC(=O)[C@H](CCCCN)NC(=O)[C@H](CC(=O)O)NC(=O)[C@H](CC(C)C)NC(=O)[C@H](CC(C)C)NC(=O)[C@@H](NC(=O)[C@H](CO)NC(=O)[C@H](Cc1ccc(O)cc1)NC(=O)[C@H](CC(=O)O)NC(=O)[C@H](CO)NC(=O)[C@@H](NC(=O)[C@H](Cc1ccccc1)NC(=O)[C@@H](NC(=O)CNC(=O)[C@H](CCC(=O)O)NC(=O)C(C)(C)NC(=O)[C@@H](N)Cc1ccc(O)cc1)[C@@H](C)O)[C@@H](C)O)[C@@H](C)CC)[C@@H](C)CC)C(=O)N[C@@H](CCC(=O)O)C(=O)NCC(=O)NCC(N)=O [Example 294] (H-Y[Aib]EGTFTSDYSILLDKK([AEEA-AEEA-γGlu-C18 diacid])AQQAFIEYLIEGG-NH2)
4.12	0.281	> 1000	0.116	0.181	CC[C@H](C)[C@H](NC(=O)[C@H](CC(C)C)NC(=O)[C@H](Cc1ccc(O)cc1)NC(=O)[C@H](CCC(=O)O)NC(=O)[C@@H](NC(=O)[C@H](Cc1ccccc1)NC(=O)[C@H](C)NC(=O)[C@H](Cc1c[nH]cn1)NC(=O)[C@H](CCC(N)=O)NC(=O)[C@H](C)NC(=O)[C@H](CCCCNC(=O)COCCOCCNC(=O)COCCOCCNC(=O)CC[C@H](NC(=O)CCCCCCCCCCCCCCCCC(=O)O)C(=O)O)NC(=O)[C@H](CCCCN)NC(=O)[C@H](CC(=O)O)NC(=O)[C@H](CC(C)C)NC(=O)[C@H](CC(C)C)NC(=O)[C@@H](NC(=O)[C@H](CO)NC(=O)[C@H](Cc1ccc(O)cc1)NC(=O)[C@H](CC(=O)O)NC(=O)[C@H](CO)NC(=O)[C@@H](NC(=O)[C@H](Cc1ccccc1)NC(=O)[C@@H](NC(=O)CNC(=O)[C@H](CCC(=O)O)NC(=O)C(C)(C)NC(=O)[C@@H](N)Cc1ccc(O)cc1)[C@@H](C)O)[C@@H](C)O)[C@@H](C)CC)[C@@H](C)CC)C(=O)N[C@@H](CCC(=O)O)C(=O)NCC(=O)NCC(N)=O [Example 295] (H-Y[Aib]EGTFTSDYSILLDKK([AEEA-AEEA-γGlu-C18 diacid])AQHAFIEYLIEGG-NH2)
3.33	0.198	> 1000	0.0867	0.444	CC[C@H](C)[C@H](NC(=O)[C@H](CC(C)C)NC(=O)[C@H](Cc1ccc(O)cc1)NC(=O)[C@H](CCC(=O)O)NC(=O)[C@@H](NC(=O)[C@H](Cc1ccccc1)NC(=O)[C@H](C)NC(=O)[C@H](CCCCN)NC(=O)[C@H](CCC(N)=O)NC(=O)[C@H](C)NC(=O)[C@H](CCCCNC(=O)COCCOCCNC(=O)COCCOCCNC(=O)CC[C@H](NC(=O)CCCCCCCCCCCCCCCCC(=O)O)C(=O)O)NC(=O)[C@H](CCCCN)NC(=O)[C@H](CC(=O)O)NC(=O)[C@H](CC(C)C)NC(=O)[C@H](CC(C)C)NC(=O)[C@@H](NC(=O)[C@H](CO)NC(=O)[C@H](Cc1ccc(O)cc1)NC(=O)[C@H](CC(=O)O)NC(=O)[C@H](CO)NC(=O)[C@@H](NC(=O)[C@H](Cc1ccccc1)NC(=O)[C@@H](NC(=O)CNC(=O)[C@H](CCC(=O)O)NC(=O)C(C)(C)NC(=O)[C@@H](N)Cc1ccc(O)cc1)[C@@H](C)O)[C@@H](C)O)[C@@H](C)CC)[C@@H](C)CC)C(=O)N[C@@H](CCC(=O)O)C(=O)NCC(=O)NCC(=O)N1CCC[C@H]1C(=O)N[C@@H](CO)C(=O)N[C@@H](CO)C(=O)NCC(N)=O [Example 296] (H-Y[Aib]EGTFTSDYSILLDKK([AEEA-AEEA-γGlu-C18 diacid])AQKAFIEYLIEGGPSSG-NH2)
2.98	0.0451	> 1240	0.111	0.0958	CC[C@H](C)[C@H](NC(=O)[C@H](CC(C)C)NC(=O)[C@H](Cc1ccc(O)cc1)NC(=O)[C@H](CCC(=O)O)NC(=O)[C@@H](NC(=O)[C@H](Cc1ccccc1)NC(=O)[C@H](CCC(=O)O)NC(=O)C(C)(C)NC(=O)[C@H](CCC(N)=O)NC(=O)[C@H](C)NC(=O)[C@H](CCCCNC(=O)COCCOCCNC(=O)COCCOCCNC(=O)CC[C@H](NC(=O)CCCCCCCCCCCCCCCCC(=O)O)C(=O)O)NC(=O)[C@H](CCCCN)NC(=O)[C@H](CC(=O)O)NC(=O)[C@H](CC(C)C)NC(=O)[C@H](CC(C)C)NC(=O)[C@@H](NC(=O)[C@H](CO)NC(=O)[C@H](Cc1ccc(O)cc1)NC(=O)[C@H](CC(=O)O)NC(=O)[C@H](CO)NC(=O)[C@@H](NC(=O)[C@H](Cc1ccccc1)NC(=O)[C@@H](NC(=O)CNC(=O)[C@H](CCC(=O)O)NC(=O)C(C)(C)NC(=O)[C@@H](N)Cc1ccc(O)cc1)[C@@H](C)O)[C@@H](C)O)[C@@H](C)CC)[C@@H](C)CC)C(=O)N[C@@H](C)C(=O)NCC(=O)NCC(N)=O [Example 297] (H-Y[Aib]EGTFTSDYSILLDKK([AEEA-AEEA-γGlu-C18 diacid])AQ[Aib]EFIEYLIAGG-NH2)
54.3	0.932	> 1040	2.54	0.734	CC[C@H](C)[C@H](NC(=O)[C@H](CC(C)C)NC(=O)[C@H](Cc1ccc(O)cc1)NC(=O)[C@H](CCC(=O)O)NC(=O)[C@H](CC(C)C)NC(=O)[C@H](Cc1ccccc1)NC(=O)[C@H](C)NC(=O)C(C)(C)NC(=O)[C@H](CCC(N)=O)NC(=O)[C@H](C)NC(=O)[C@H](CCCCNC(=O)COCCOCCNC(=O)COCCOCCNC(=O)CC[C@H](NC(=O)CCCCCCCCCCCCCCCCC(=O)O)C(=O)O)NC(=O)[C@H](CCCCN)NC(=O)[C@H](CC(=O)O)NC(=O)[C@H](CC(C)C)NC(=O)[C@H](CC(C)C)NC(=O)[C@@H](NC(=O)[C@H](CO)NC(=O)[C@H](Cc1ccc(O)cc1)NC(=O)[C@H](CC(=O)O)NC(=O)[C@H](CO)NC(=O)[C@@H](NC(=O)[C@H](Cc1ccccc1)NC(=O)[C@@H](NC(=O)CNC(=O)[C@H](CCC(=O)O)NC(=O)C(C)(C)NC(=O)[C@@H](N)Cc1ccc(O)cc1)[C@@H](C)O)[C@@H](C)O)[C@@H](C)CC)C(=O)N[C@@H](CCC(=O)O)C(=O)NCC(=O)NCC(=O)N1CCC[C@H]1C(=O)N[C@@H](CO)C(=O)N[C@@H](CO)C(=O)NCC(N)=O [Example 299] (H-Y[Aib]EGTFTSDYSILLDKK([AEEA-AEEA-γGlu-C18 diacid])AQ[Aib]AFLEYLIEGGPSSG-NH2)
